Patent publication US20110020517A1, “TASTE MODIFYING PRODUCT” (priority 2008, published 2011)

Key:
[1] = Evaluation for umami/kokumi taste and mouthfeel by a team of 8 trained panelists, in 0.3% aqueous NaCl solution; details: 10 ppm in 0.3% aqueous NaCl solution
Procedure: Liquid 2-(3-phenylpropyl)pyridine was obtained from R.C. Treatt & Co Ltd, UK (reference SA362100/2). It was then diluted into propylene glycol solvent to provide a 10% solution of the 2-(3-phenylpropyl)pyridine, the resulting solution then being added to a 0.3% aqueous NaCl solution to provide a concentration of 2-(3-phenylpropyl)pyridine of 10 ppm.
The sample was evaluated for umami/kokumi taste and mouthfeel by a team of 8 trained panelists.

[2] = prior art, U.S. Pat. No. 5,298,486 column 2 lines 24 to 33; cited from earlier work

SMILES: c1ccc(CCCc2ccccn2)cc1 [2-(3-phenylpropyl)pyridine]
- Description: Mouthfeel [1]: Mouthfeel: sweet,
- Description: Taste [1]: Taste: brown, fatty,
- Kokumi/Umami taste intensity ([1]; scale of 0 to 10, 0 = no Kokumi/Umami effect, 10 = very intense effect): 7

SMILES: CCCCCCCc1cccnc1 [3-heptylpyridine]
- flavor note [2]: fatty, metallic and fishy

SMILES: CCCCCCc1cccnc1 [3-hexylpyridine]
- flavor note [2]: fruity
